# Measured values from US5100879A, “Method of topically cleansing the human body” (K.K. Ueno Seiyaku Oyo Kenkyujo, priority 1987, dated 1992).
# Read-outs that look alike come from different tables or passages of the source.
# Tests used:
# [1] = tested on: HTLV-III; experiment: Anti-AIDS activity, infected cell rate of MT-4 cells infected with HTLV-III at the 6th day (Example 9); assay type: cell-based; settings: for Infected cell (%): 6th day, control without test substance 100%; for anti-AIDS virus activity, in words: Example 9
# Procedure: (§1) To MT-4 cells (30×10^4 /ml) cultured in RPMI-1640 medium containing 10% bovine serum, was inoculated HTLV-III, and the suspension was incubated at 37° C. for 1 hour to cause the adsorption of the virus. The cell:virus ratio was 500:1. The cells were then washed, and cultured with or without various doses of the test substances (same as those of Example 1) at 37° C. under 5% CO2 for 3 days, after which cell growth, viability, and percentage of infected cells were recorded. The infected cells were distinguished from the uninfected cells by an indirect immuno-fluorescence method. Thus, the cultured cells were fixed with cold methanol on a slide glass, reacted with antibody to the HTLV-III-specific antigens, and further with the secondary antibody (having a fluororescent label). The results are shown in FIGS. 9-29, wherein, .gradient., .increment. and .quadrature. show the controls without virus, and show the infection experiments with HTLV-III. The cell growth is indicated in number of cells, the viability (%) in number of viable cells ×100/number of total cells, and the infected cell rate (%) in number of fluorescent-positive cells x 100/number of total cells.
# In order to examine the correlation between the anti-AIDS virus activity and the molecular structure (especially, molecular weight and S-content or number of sulfate group in this case) of various test substances including those used in Examples 1-7, the anti-AIDS activities were evaluated for the various naturally occurring polysaccharides, polysaccharides having a sulfate group, mucopolysaccharides, mucopolysaccharide sulfate, and mucopolysaccharide polysulfate. Further, similar experiments were carried out with various other sulfates which were synthetically obtained. The experimental procedures employed are identical to that in the preceding experiments. The cultured MT-4 cells were infected with HTLV-III and the inhibitory effects of various test substances on the infected cell rate (number of fluorescent cell×100/ total cell, %) were determined at the 6th day.
# [2] = tested on: MT-4 cells; experiment: Cytotoxicity, MT-4 cells cultured without virus (Examples 4 and 8); assay type: cell-based, human; settings: for Viability / Cell number: without virus; for Viability: 0 μg/ml gives 87; for Cell number: 0 μg/ml gives 124
# Text: The cell:virus ratio was 500:1. […] The infected cells were distinguished from the uninfected cells by an indirect immuno-fluorescence method. Thus, the cultured cells were fixed with cold methanol on a slide glass, reacted with antibody to the HTLV-III-specific antigens, and further with the secondary antibody (having a fluororescent label). […] The cell growth is indicated in number of cells, the viability (%) in number of viable cells ×100/number of total cells, and the infected cell rate (%) in number of fluorescent-positive cells x 100/number of total cells.
# [3] = tested on: reverse transcriptase (authentic sample) derived from Avian Myeloblastosis Virus; experiment: Inhibition of reverse transcriptase activity (AMV), Examples 1 and 5; assay type: biochemical; settings: FIGS. 30-33
# Procedure: Test substances were assayed for inhibition against the enzyme activity of reverse transcriptase (authentic sample) derived from Avian Myeloblastosis Virus (abbrev. AMV), a kind of retrovirus. Five microliters of […] (template RNA), 4 μl of (dT)12-18 (primer DNA), and 1 μl of water were mixed with 5 μl of 0.5M Tris-HCl (pH 8.4) including 0.1% triton X-100, 5 μl of […], 5 μl of 20 […], 5 μl of water, and [^3 H]-TTP (tritium labeled thymidine triphosphate). To this mixture, test substances in solutions (final concentrations: 1, 0.1, and 0.01 μg/ml, 5 μl) or buffer solutions (control, 5 μl) at various doses were added. Then, 5 μl (one unit) of the authentic reverse transcriptase derived from AMV was added and the reaction mixture was incubated at 37° C. for 30 minutes. The reaction was stopped by addition of trichloroacetic acid, and after filtering the reaction mixture, the radioactivity of the polymerized (3H-T)n retained on the filter was measured using a liquid scintilation counter. As the test substances, sodium dextran sulfate (molecular weight: 5000), same (molecular weight: 8000), same (molecular weight: 500000), fucoidin, κ-carrageenan, λ-carrageenan, and .iota.-carrageenan were used.
# The effects of the test substances on the reverse transcriptase activity of AMV were evaluated by the method described in Example 1.
# [4] = tested on: HTLV-III; experiment: Anti-AIDS virus activity, MT-4 cells infected with HTLV-III, 3 days (Examples 3, 6, 7); assay type: cell-based; settings: increasing dose
# Procedure: as §1
# Test substances were assayed for the anti-AIDS virus activity in the same manner as in Example 3 using cell culture. […]
# The anti-AIDS virus activity of heparin was evaluated in the same manner as in Example 3. […]
# [5] = tested on: mice; settings: cited from earlier work
# [6] = tested on: reverse transciptase of simian sarcoma virus; settings: Cancer Research, 38, 2401 2407; cited from earlier work
# [7] = tested on: DNA polymerase of phytohemagglutinin stimulated human lymphocytes; settings: Cancer Research, 38, 2401 2407; cited from earlier work
# [8] = tested on: disrupted HTLV-III virions as a crude reverse transcriptase; experiment: Inhibition of reverse transcriptase activity (HTLV-III), Example 2; assay type: biochemical; settings: FIG. 8
# [9] = tested on: Friend leukemia virus (F-MuLV); experiment: Anti-Friend leukemia virus activity, XC-plaque assay, Procedure 1; assay type: cell-based; settings: for Number of plaques per dish: control 168
# Procedure: (§2) Anti-FMuLV activity of dextran sulfate (molecular weight: 7000-8000, S-content: 17-20%) was determined by a XC-plaque assay method. BALB3T3 cells were cultured in adhesive form in a 35 mm-dish at 5×10^4 cells/dish (2 ml). After removing the culture medium, a fresh medium with or without indicated concentrations of the test substance (1 ml each) and 0.2 ml of the virus preparation were charged, and the cells were cultured overnight. On the following day, the culture media were replaced with those (2 ml) containing or not containing the above substances, the incubation was continued for three additional days to progress the infection and replication of the virus. After the removal of the medium, the further progression of viral replication was stopped by UV irradiation. To this dish, the suspension of XC-cells (2 ml) was added and cultured for three days and the plaque formation produced by the virus particle induced cell-fusion, was observed.
# [10] = tested on: Friend leukemia virus (F-MuLV); experiment: Anti-Friend leukemia virus activity, XC-plaque assay, Procedure 2; assay type: cell-based; settings: for Number of plaques per dish: control 35
# Procedure: as §2
# Procedure 1 was repeated except that after adsorption of the virus in the medium without DS, the non-adsorbed viruses were removed and the culture was carried out in the medium (2 ml) containing or not containing DS.
# [11] = 1 μg/ml, listed as Sodium dextran sulfate (molecular weight: 5000, S-content: 13%)
# [12] = 10 μg/ml, listed as Sodium dextran sulfate (molecular weight: 5000, S-content: 13%)
# [13] = 100 μg/ml, listed as Sodium dextran sulfate (molecular weight: 5000, S-content: 13%)
substance,measurement,setting,value
.iota.-Carrageenan,Infected cell (%),[1]; 10 μg/ml,100%
same,Infected cell (%),[1]; 100 μg/ml,31%
same,Viability,[2]; 1 μg/ml,94%
same,Cell number,[2]; 1 μg/ml,135 ×10^4 cells/ml
same,Viability,[2]; 10 μg/ml,93%
same,Cell number,[2]; 10 μg/ml,128 ×10^4 cells/ml
same,Viability,[2]; 100 μg/ml,80%
same,Cell number,[2]; 100 μg/ml,144 ×10^4 cells/ml
Chondroitin polysulfate,reverse transcriptase inhibitory activity compared with the natural substances,[3],stronger activity
same,Infected cell (%),[1]; 10 μg/ml,3%
same,Infected cell (%),[1]; 100 μg/ml,1%
same,"anti-AIDS virus activity, in words",[1],particularly strong
"Dextran sulfate [Dextran sulfate 5,000]",Infected cell (%),"[1]; 10 μg/ml, 8640 min",18%
same,Infected cell (%),"[1]; 100 μg/ml, 8640 min",0%
same,Viability,[2]; [11],90%
same,Cell number,[2]; [11],123 ×10^4 cells/ml
same,Viability,[2]; [12],92%
same,Cell number,[2]; [12],127 ×10^4 cells/ml
same,Viability,[2]; [13],93%
same,Cell number,[2]; [13],121 ×10^4 cells/ml
Fucoidin,Infected cell (%),[1]; 10 μg/ml,32%
same,Infected cell (%),[1]; 100 μg/ml,1%
same,Viability,[2]; 1 μg/ml,92%
same,Cell number,[2]; 1 μg/ml,141 ×10^4 cells/ml
same,Viability,[2]; 10 μg/ml,99%
same,Cell number,[2]; 10 μg/ml,112 ×10^4 cells/ml
same,Viability,[2]; 100 μg/ml,93%
same,Cell number,[2]; 100 μg/ml,71 ×10^4 cells/ml
Heparin,cell growth (number of cells) and viability of MT-4 cells infected with HTLV-III,[4],the number of cells and viability were maintained to that of control
same,"infected cell rate (%) of MT-4 cells infected with HTLV-III, in words",[4],less susceptible to the viral infection
same,Infected cell (%),[1]; 10 μg/ml,41%
same,Infected cell (%),[1]; 100 μg/ml,1%
same,"anti-AIDS virus activity, in words",[1],particularly strong
same,"cytotoxicity to MT-4 cells, in words",[2],little cytotoxicity
same,acute toxicity (LD50),[5]; intravenously,"1,500-2,000 mg/kg"
same,inhibition of reverse transciptase of simian sarcoma virus in vitro,[6],inhibit
same,inhibition of DNA polymerase of phytohemagglutinin stimulated human lymphocytes in vitro,[7],inhibit
Keratan polysulfate,reverse transcriptase inhibitory activity compared with the natural substances,[3],stronger activity
same,Infected cell (%),[1]; 10 μg/ml,80%
same,Infected cell (%),[1]; 100 μg/ml,40%
"dextran sulfate [Dextran sulfate 7,000-8,000]",inhibitory effect against the reverse transcriptase derived from HTLV-III,[8],has an inhibitory effect
same,Infected cell (%),[1]; 10 μg/ml,1%
same,Infected cell (%),[1]; 100 μg/ml,0%
same,Viability,[2]; 1 μg/ml,90%
same,Inhibition (%),"[9]; Procedure 1, 1 μg/ml",92%
same,Number of plaques per dish,"[9]; Procedure 1, 1 μg/ml",14 per dish
same,Inhibition (%),"[9]; Procedure 1, 5 μg/ml",93%
same,Number of plaques per dish,"[9]; Procedure 1, 5 μg/ml",12 per dish
same,Inhibition (%),"[9]; Procedure 1, 10 μg/ml",93%
same,Number of plaques per dish,"[9]; Procedure 1, 10 μg/ml",11 per dish
same,Inhibition (%),"[9]; Procedure 1, 50 μg/ml",92%
same,Number of plaques per dish,"[9]; Procedure 1, 50 μg/ml",13 per dish
same,Inhibition (%),"[9]; Procedure 1, 100 μg/ml",96%
same,Number of plaques per dish,"[9]; Procedure 1, 100 μg/ml",6 per dish
same,Inhibition (%),"[9]; Procedure 1, 1000 μg/ml",100%
same,inhibition of the formation of plaque,"[9]; Procedure 1, concentrations of 1-100 μg/ml",≥ 90%
same,Inhibition (%),"[10]; Procedure 2, 0.01 μg/ml",6%
same,Number of plaques per dish,"[10]; Procedure 2, 0.01 μg/ml",33 per dish
same,Inhibition (%),"[10]; Procedure 2, 0.1 μg/ml",45%
same,Number of plaques per dish,"[10]; Procedure 2, 0.1 μg/ml",19 per dish
same,Number of plaques per dish,"[10]; Procedure 2, 1 μg/ml",14 per dish
same,Inhibition (%),"[10]; Procedure 2, 10 μg/ml",52%
same,Number of plaques per dish,"[10]; Procedure 2, 10 μg/ml",17 per dish
same,Inhibition (%),"[10]; Procedure 2, 100 μg/ml",54%
same,Number of plaques per dish,"[10]; Procedure 2, 100 μg/ml",16 per dish
same,Number of plaques per dish,"[10]; Procedure 2, 500 μg/ml",0 per dish
same,acute toxicity (LD50),[5]; intravenously,"4,500 mg/kg"
same,acute toxicity (LD50),[5]; orally,"21,000 mg/kg"
sodium chondroitin sulfate,acute toxicity (LD50),[5]; intraperitoneally,"≥ 4,000 mg/kg"
same,acute toxicity (LD50),[5]; orally,"≥ 7,500 mg/kg"
κ-Carrageenan,Infected cell (%),[1]; 10 μg/ml,95%
same,Infected cell (%),[1]; 100 μg/ml,1%
same,Viability,[2]; 1 μg/ml,93%
same,Cell number,[2]; 1 μg/ml,147 ×10^4 cells/ml
same,Viability,[2]; 10 μg/ml,93%
same,Cell number,[2]; 10 μg/ml,149 ×10^4 cells/ml
same,Viability,[2]; 100 μg/ml,92%
same,Cell number,[2]; 100 μg/ml,111 ×10^4 cells/ml
λ-Carrageenan,Infected cell (%),[1]; 10 μg/ml,3%
same,Infected cell (%),[1]; 100 μg/ml,1%
same,"anti-AIDS virus activity, in words",[1],particularly strong
same,Viability,[2]; 1 μg/ml,89%
same,Cell number,[2]; 1 μg/ml,147 ×10^4 cells/ml
same,Viability,[2]; 10 μg/ml,94%
same,Cell number,[2]; 10 μg/ml,203 ×10^4 cells/ml
same,Viability,[2]; 100 μg/ml,94%
same,Cell number,[2]; 100 μg/ml,83 ×10^4 cells/ml
